Assay results as given in ChEMBL document CHEMBL1938285, “Novel inhibitors of Mycobacterium tuberculosis dTDP-6-deoxy-L-lyxo-4-hexulose reductase (RmlD) identified by virtual screening” (Bioorg Med Chem Lett, 2011).
≈ marks a conversion by molar mass, not a printed value. Calls of active or inactive are those of the source. The calls are words filed in the database; no cut-off is given here.

Experiments:
[1] = target: T1, dTDP-4-dehydrorhamnose reductase (Mycobacterium tuberculosis) (UniProt P9WH09); assay: Inhibition of Mycobacterium tuberculosis RmlD assessed as inhibition of dTDP-beta-6-deoxy-L-lyxo-4-hexulose to dTDP-beta-L-rhamnose conversion at 10 ug/ml
T1 sequence (whole entry): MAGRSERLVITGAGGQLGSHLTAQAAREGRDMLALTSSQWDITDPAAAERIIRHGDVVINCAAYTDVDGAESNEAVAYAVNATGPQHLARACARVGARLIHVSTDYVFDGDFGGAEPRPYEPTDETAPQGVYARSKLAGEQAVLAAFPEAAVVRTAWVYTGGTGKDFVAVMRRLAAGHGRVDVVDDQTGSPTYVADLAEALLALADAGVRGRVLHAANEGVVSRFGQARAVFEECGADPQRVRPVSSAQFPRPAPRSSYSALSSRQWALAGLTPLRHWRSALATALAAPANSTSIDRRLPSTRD

[2] = test system: Mycobacterium tuberculosis; assay: Antimycobacterial activity against Mycobacterium tuberculosis H37Rv after 7 days by microbroth dilution-resazurin assay; type: functional; conditions: 168 h
[3] = target: T2, dTDP-4-dehydrorhamnose reductase (Mycobacterium tuberculosis, UniProt P9WH09); assay: Inhibition of Mycobacterium tuberculosis RmlD assessed as inhibition of dTDP-beta-6-deoxy-L-lyxo-4-hexulose to dTDP-beta-L-rhamnose conversion
T2 sequence (P9WH09 whole entry): T1 sequence (whole entry)

SMILES	inhibition [1]	MIC [2]	IC50 [3]
O=C(OCC(O)COC(=O)c1cccnc1)c1cccnc1	inactive		
NC(=O)CC[C@@H](C(=O)O)N1C(=O)c2ccc(O)cc2C1=O	inactive		
O=C(/C=C/c1ccc(O)c(O)c1)O[C@@H]1C[C@@](OC(=O)/C=C/c2ccc(O)c(O)c2)(C(=O)O)C[C@@H](O)[C@@H]1O	inactive		
CCC(CC)C(c1ccc(O)cc1)c1ccc(O)cc1	inactive		
COc1cccc2c1[C@H](CO)N1[C@H](C#N)[C@@H]3C[C@H](C(=O)O)[C@@H]([C@@H]1C2)N3C	inactive		
O=C1C(Cl)=C(Nc2ccc3c[nH]nc3c2)C(=O)c2ccccc21	inactive		
Cc1cc(=O)oc2cc(O)c(O)cc12	inactive		
O=C1C=C(c2ccccc2)OC(=O)C1C(=O)c1ccccc1 (configuration not stated)	inactive		
C=Cc1c(C)c(O)cc2c1-c1ccc(O)c(C)c1CC2	inactive		
N=C(N)c1ccc(/C=C/c2ccc(C(=N)N)cc2O)cc1	inactive		
Cc1ccc(NC(=O)Nc2cccnc2)cc1NC(=O)Nc1cccnc1	inactive		
Cn1c(=O)c2nc(CNc3ccc(C(=O)O)cc3)[nH]c2n(C)c1=O	inactive		
Cc1c2cc(O)c(=O)cc-2oc2cc(O)c(O)cc12		62 µg/mL (≈ 240 µM)	15000 nM
O=C1C=CC=CC1=C1c2cc(O)c(O)cc2Oc2cc(O)c(O)cc21		133 µg/mL (≈ 395 µM)	2100 nM
COc1ccccc1NC(=O)c1cc2cc(Br)ccc2cc1O	inactive		
C[C@@H]1O[C@@H](Oc2c(-c3cc(O)c(O)c(O)c3)oc3cc(O)cc(O)c3c2=O)[C@H](O)[C@H](O)[C@H]1O	inactive		
Cc1c(Cl)cccc1Nc1ncccc1C(=O)OCC(O)CO (configuration not stated)	inactive		
CC(c1cccc(O)c1)C(C)c1cccc(O)c1 (configuration not stated)	inactive		
Cc1cc2c(cc1C)NC1=C(N2)OC(c2cccc(O)c2)C1=O (configuration not stated)	inactive		
C=Cc1cc(O)cc2c1-c1ccc(O)c(C)c1CC2 [EFFUSOL]		20 µg/mL (≈ 79.3 µM)	
Oc1ccc(C(c2ccc(O)cc2)c2ccc(O)cc2)cc1	inactive		
COc1cc(NC(=O)c2cc3ccccc3cc2O)c(OC)cc1Cl	inactive		
Oc1ccc(C(O)(c2ccccc2)c2ccc(O)c3ccccc23)c2ccccc12	inactive		
CCC(c1ccc(O)cc1)C(CC)c1ccc(O)c(O)c1 (configuration not stated)	inactive		
O=C(O)/C=C/c1c2ccc(=O)c(O)c-2oc2c(O)c(O)ccc12	inactive		

SMILES	inhibition [1]	MIC [2]	IC50 [3]
CC(Cc1ccc(O)c(O)c1)C(C)Cc1ccc(O)c(O)c1 (configuration not stated)	inactive		
CSc1ncc2ncn([C@@H]3O[C@H](CO)[C@@H](O)[C@H]3O)c2n1	inactive		
O=C(/C=C/c1ccc2ccccc2n1)c1cc(Cl)ccc1O	inactive		
Oc1ccc2c(O)c3ccccc3cc2c1O	inactive		
NC(=S)c1cn([C@@H]2O[C@H](CO)[C@@H](O)[C@H]2O)c2ncnc(N)c12	inactive		
CCC(c1ccccc1)C(CC)c1ccc(O)c(O)c1 (configuration not stated)	inactive		
O=c1ccc2c(-c3ccccc3O)c3ccc(O)cc3oc-2c1	inactive		
O=C(c1ccc(O)cc1)c1ccc(C(=O)c2ccc(O)cc2)cc1	inactive		
COc1ccc(NC(=O)c2cc3ccc4c5ccccc5[nH]c4c3cc2O)cc1	inactive		
COc1ccccc1/C=C/C(=O)/C=C/c1ccccc1O	inactive		
Oc1cc(C(c2ccccc2)c2ccccc2)c2ccccc2c1O	inactive		
O[C@@H]1[C@@H](OCc2ccccc2)OC[C@H](O)[C@@H]1O	inactive		
CC(=O)Oc1c(C)c(OC(C)=O)c2c(c1C(C)=O)OC1CC(=O)C(C(C)=O)=C(O)C21C (configuration not stated)	inactive		
O=c1cc2oc3cc(O)c(O)cc3c(-c3ccccc3)c-2cc1O		200 µg/mL (≈ 624 µM)	900 nM
N#Cc1cnn2ccn([C@@H]3O[C@H](CO)[C@@H](O)[C@H]3O)c12	inactive		
COc1cc(/N=N/c2c(O)nc3ccccc3c2O)c(OC)cc1/N=N/c1ccccc1	inactive		
CC(=O)OCc1cc(-c2nc3ccccc3nc2O)nn1-c1ccc(Cl)cc1	inactive		
Cc1cc(O)c2cc3c(O)c(O)ccc3cc2c1	inactive		
COc1cc(C(=O)C(=O)c2cc(OC)c(O)c(OC)c2)cc(OC)c1O	inactive		
COc1ccc(OC)c(NC(=O)c2cc3oc4ccccc4c3cc2O)c1	inactive		
O=C1CC(c2ccccc2)c2ccc(O)cc2O1 (configuration not stated)	inactive		
O=c1oc2c(cc1O)oc(=O)c1cc(O)c(O)c(O)c12	inactive		
Oc1ccc(-c2ccc3ccccc3c2)cc1	inactive		
CCC(c1ccccc1)C(CC)c1cc(O)c(O)c(O)c1 (configuration not stated)	inactive		
